The test system of one assay is human iPS cell line AK5. Briefly: Intracellular staining and flow cytometry of pluripotency markers SOX2 and OCT3/4. It counts as cell-based. The conditions noted are these: PSCs maintained in LM511 with CHIR99021 added; immediately before initiation of differentiation (FIG. 7). How it is done:
To detect pluripotency markers SOX2 and OCT3/4, intracellular staining was performed by flow cytometry. Briefly, dead cell staining was performed using Zombie (trade s mark) Aqua Fixable Viability Kit (BioLegend, San Diego, Calif., USA). After washing, the cells were fixed by allowing to stand for 15 min at room temperature with PerFix-nckit Reagent1. Successively, the cells were subjected to a permeation treatment by fixing with ice-cooled 100% methanol for 5 min, and incubating for 10 min at room temperature with 0.5% saponin. The cells were washed and suspended in PBS (containing 3% FBS), V450 Mouse anti-Sox2 and Alexa Fluor (registered trade mark) 488 conjugated Mouse anti-OCT3/4 (BD biosciences, Bedford, Mass., USA) was added, and the mixture was incubated on ice for 30 min. Excessive antibody was washed away and analysis was performed with FACSVerse (trade mark) (BD Biosciences).

For assay [1], the system named is human iPS cell line AK5 (hPSC1). The experiment in a line: Differentiation into hematopoietic progenitor cells by the PSC-Sac method (CD34+CD43+ cell count). The conditions noted are these: PSCs maintained on LM511, CHIR99021 6 nM added from 4, 3, 2 or 1 day before start of differentiation induction; vs DMSO (FIG. 2). It is filed as cell-based. The method, then:
PSCs were cultured according to the previous report on various laminin E8 fragments under feeder-free conditions (Nakagawa et al., Scientific Reports, 4: 3954, 2014). Among the recombinant laminin E8 fragments used, LM511 E8 was iMatrix-511/iMatrix-511 silk (Nippi, Ibaraki, Japan), and other laminin E8 (LM421/121) fragments were provided by Dr. Kiyotoshi Sekiguchi (Institute for Protein Research, Osaka University). Each laminin fragment was added to 0.5 μg/cm^2 relative to the dish bottom area. In the laminin dilution experiment, coating was performed in the same manner as described above under the conditions of [x½], [x¼], [x⅛], [x 1/16], wherein [x1] is Laminin 511E8 0.5 μg/cm^2 condition. […]
As a method for performing blood cell differentiation from PSCs, the PSC-Sac method, which is a co-culture method with mouse interstitial cell C3H10TR, was used (Takayama and Eto Methods Mol Biol. 2012; 788:205-17, Takaayama et al. J Exp Med. 2010 207(13): 2817-2830). […] After confirmation of the absence of intercellular adhesion, the cells were detached from the dish with Cell scraper, and the number of the cells was counted with Trypan Blue and a hemocytometer. […]
The number of the cells was counted with Trypan Blue and a hemocytometer. […] For the measurement of hPSCs, TRA-1-60 positive cells were measured. […]

Turning to `Cc1c[nH]c(-c2cnc(NCCNc3ccc(C#N)cn3)nc2-c2ccc(Cl)cc2Cl)n1` [CHIR99021, 6-[2-[4-(2,4-Dichlorophenyl)-5-(4-methyl-1H-imidazol-2-yl)pyrimidin-2-ylamino]ethylamino]pyridine-3-carbonitrile], the “number of cells maintaining positive pluripotency for both OCT3/4 and SOX2” value with human iPS cell line AK5 was “decreased”. For the same molecule, in assay [1], the “number of hematopoietic progenitor cells” value is given as “the number of hematopoietic progenitor cells could be increased”.

Source of the values: patent publication US20220010283A1, “METHOD FOR PRODUCING PLURIPOTENT STEM CELL HAVING RELEASED DIFFERENTIATION RESISTANCE TO MESENDODERM” (Kyoto University, priority 2018, published 2022).
